# Measured values from PubChem BioAssay (NCI).
# Values joined by “and” are separate entries in the source; they are usually repeats but may differ in a detail not shown here. Equal values may be shown once.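 Briefly, cells in 96-well plates were exposed to five compound concentrations for 48 h, and endpoints were estimated by linear interpolation. GI50 marks 50% less growth. TGI marks complete inhibition of growth.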
# Test system: A549 NSCLC
# Test: DTP human tumour cell line panel, 48 h
row,SMILES,TGI [µM]
1,COC1OC(COC(C)=O)C(OC(C)=O)C(OC(C)=O)C1NC(=O)N(CCCl)N=O (centres undefined),> 100
2,CNc1ccccc1-c1nc2ccccc2c(=O)o1,> 100
3,COc1cc(OC)c2c(c1)C(=O)C(CC1(C)OCCCO1)=CC2=O,34.4
4,Clc1cccc(Cl)c1C1SCc2nc3ccccc3n21 (centres undefined),> 100
5,COc1cc2c(cc1OC)C1[C@@H](c3ccccc3)OCN1CC2 (some centres undefined),> 100

# Test system: OVCAR-3 ovarian
# Test: DTP human tumour cell line panel, 48 h
row,SMILES,TGI [µM]
1,COC1OC(COC(C)=O)C(OC(C)=O)C(OC(C)=O)C1NC(=O)N(CCCl)N=O (centres undefined),> 100
2,COc1cc(OC)c2c(c1)C(=O)C(CC1(C)OCCCO1)=CC2=O,21.4
3,Clc1cccc(Cl)c1C1SCc2nc3ccccc3n21 (centres undefined),> 100
4,COc1cc2c(cc1OC)C1[C@@H](c3ccccc3)OCN1CC2 (some centres undefined),> 100

# Test system: A498 renal
# Test: DTP human tumour cell line panel, 48 h
row,SMILES,TGI [µM]
1,COC1OC(COC(C)=O)C(OC(C)=O)C(OC(C)=O)C1NC(=O)N(CCCl)N=O (centres undefined),> 100
2,COc1cc(OC)c2c(c1)C(=O)C(CC1(C)OCCCO1)=CC2=O,32.3
3,Clc1cccc(Cl)c1C1SCc2nc3ccccc3n21 (centres undefined),> 100
4,COc1cc2c(cc1OC)C1[C@@H](c3ccccc3)OCN1CC2 (some centres undefined),> 100

# Test system: SK-MEL-28 melanoma
# Test: DTP human tumour cell line panel, 48 h
row,SMILES,TGI [µM]
1,COC1OC(COC(C)=O)C(OC(C)=O)C(OC(C)=O)C1NC(=O)N(CCCl)N=O (centres undefined),> 100
2,CNc1ccccc1-c1nc2ccccc2c(=O)o1,> 100
3,COc1cc(OC)c2c(c1)C(=O)C(CC1(C)OCCCO1)=CC2=O,23.8
4,COc1cc2c(cc1OC)C1[C@@H](c3ccccc3)OCN1CC2 (some centres undefined),> 100

# Test system: RPMI-8226 leukemia
# Test: DTP human tumour cell line panel, 48 h
row,SMILES,TGI [µM]
1,CNc1ccccc1-c1nc2ccccc2c(=O)o1,> 100
2,COc1cc(OC)c2c(c1)C(=O)C(CC1(C)OCCCO1)=CC2=O,23.3
3,Clc1cccc(Cl)c1C1SCc2nc3ccccc3n21 (centres undefined),> 100
4,COc1cc2c(cc1OC)C1[C@@H](c3ccccc3)OCN1CC2 (some centres undefined),89.9

# Test system: SF-268 CNS
# Test: DTP human tumour cell line panel, 48 h
row,SMILES,TGI [µM]
1,COC1OC(COC(C)=O)C(OC(C)=O)C(OC(C)=O)C1NC(=O)N(CCCl)N=O (centres undefined),> 100
2,CNc1ccccc1-c1nc2ccccc2c(=O)o1,> 100
3,COc1cc(OC)c2c(c1)C(=O)C(CC1(C)OCCCO1)=CC2=O,26.9
4,Clc1cccc(Cl)c1C1SCc2nc3ccccc3n21 (centres undefined),> 100
5,COc1cc2c(cc1OC)C1[C@@H](c3ccccc3)OCN1CC2 (some centres undefined),> 100

# Test system: LXFL 529 NSCLC
# Test: DTP human tumour cell line panel, 48 h
row,SMILES,TGI [µM]
1,COC1OC(COC(C)=O)C(OC(C)=O)C(OC(C)=O)C1NC(=O)N(CCCl)N=O (centres undefined),> 100
2,CNc1ccccc1-c1nc2ccccc2c(=O)o1,> 100
3,COc1cc(OC)c2c(c1)C(=O)C(CC1(C)OCCCO1)=CC2=O,18.7
4,Clc1cccc(Cl)c1C1SCc2nc3ccccc3n21 (centres undefined),> 100
5,COc1cc2c(cc1OC)C1[C@@H](c3ccccc3)OCN1CC2 (some centres undefined),> 100

# Test system: U251 CNS
# Test: DTP human tumour cell line panel, 48 h
row,SMILES,TGI [µM]
1,CNc1ccccc1-c1nc2ccccc2c(=O)o1,> 100
2,COc1cc(OC)c2c(c1)C(=O)C(CC1(C)OCCCO1)=CC2=O,31.6
3,Clc1cccc(Cl)c1C1SCc2nc3ccccc3n21 (centres undefined),> 100
4,COc1cc2c(cc1OC)C1[C@@H](c3ccccc3)OCN1CC2 (some centres undefined),> 100

# Test system: SW-620 colon
# Test: DTP human tumour cell line panel, 48 h
row,SMILES,TGI [µM]
1,COC1OC(COC(C)=O)C(OC(C)=O)C(OC(C)=O)C1NC(=O)N(CCCl)N=O (centres undefined),> 100
2,CNc1ccccc1-c1nc2ccccc2c(=O)o1,> 100
3,COc1cc(OC)c2c(c1)C(=O)C(CC1(C)OCCCO1)=CC2=O,20.3
4,Clc1cccc(Cl)c1C1SCc2nc3ccccc3n21 (centres undefined),> 100
5,COc1cc2c(cc1OC)C1[C@@H](c3ccccc3)OCN1CC2 (some centres undefined),> 100

# Test system: EKVX NSCLC
# Test: DTP human tumour cell line panel, 48 h
row,SMILES,TGI [µM]
1,COC1OC(COC(C)=O)C(OC(C)=O)C(OC(C)=O)C1NC(=O)N(CCCl)N=O (centres undefined),> 100
2,CNc1ccccc1-c1nc2ccccc2c(=O)o1,> 100
3,COc1cc(OC)c2c(c1)C(=O)C(CC1(C)OCCCO1)=CC2=O,28.6
4,Clc1cccc(Cl)c1C1SCc2nc3ccccc3n21 (centres undefined),> 100
5,COc1cc2c(cc1OC)C1[C@@H](c3ccccc3)OCN1CC2 (some centres undefined),> 100

# Test system: SF-539 CNS
# Test: DTP human tumour cell line panel, 48 h
SMILES,GI50,TGI
COC1OC(COC(C)=O)C(OC(C)=O)C(OC(C)=O)C1NC(=O)N(CCCl)N=O (centres undefined),> 100 µM and 24.7 µM,> 100 µM and 91.7 µM
CNc1ccccc1-c1nc2ccccc2c(=O)o1,–,> 100 µM
COc1cc(OC)c2c(c1)C(=O)C(CC1(C)OCCCO1)=CC2=O,–,25.6 µM
Clc1cccc(Cl)c1C1SCc2nc3ccccc3n21 (centres undefined),–,> 100 µM
COc1cc2c(cc1OC)C1[C@@H](c3ccccc3)OCN1CC2 (some centres undefined),–,> 100 µM

# Test system: K-562 leukemia
# Test: DTP human tumour cell line panel, 48 h
row,SMILES,TGI [µM]
1,COC1OC(COC(C)=O)C(OC(C)=O)C(OC(C)=O)C1NC(=O)N(CCCl)N=O (centres undefined),> 100
2,CNc1ccccc1-c1nc2ccccc2c(=O)o1,> 100
3,COc1cc(OC)c2c(c1)C(=O)C(CC1(C)OCCCO1)=CC2=O,> 69.7
4,Clc1cccc(Cl)c1C1SCc2nc3ccccc3n21 (centres undefined),> 100
5,COc1cc2c(cc1OC)C1[C@@H](c3ccccc3)OCN1CC2 (some centres undefined),> 63.1

# Test system: NCI-H226 lung
# Test: DTP human tumour cell line panel, 48 h
row,SMILES,TGI [µM]
1,COC1OC(COC(C)=O)C(OC(C)=O)C(OC(C)=O)C1NC(=O)N(CCCl)N=O (centres undefined),> 100
2,CNc1ccccc1-c1nc2ccccc2c(=O)o1,> 100
3,COc1cc(OC)c2c(c1)C(=O)C(CC1(C)OCCCO1)=CC2=O,36.3
4,Clc1cccc(Cl)c1C1SCc2nc3ccccc3n21 (centres undefined),> 100
5,COc1cc2c(cc1OC)C1[C@@H](c3ccccc3)OCN1CC2 (some centres undefined),> 100

# Test system: OVCAR-4 ovarian
# Test: DTP human tumour cell line panel, 48 h
row,SMILES,TGI [µM]
1,COC1OC(COC(C)=O)C(OC(C)=O)C(OC(C)=O)C1NC(=O)N(CCCl)N=O (centres undefined),> 100
2,CNc1ccccc1-c1nc2ccccc2c(=O)o1,> 100
3,COc1cc(OC)c2c(c1)C(=O)C(CC1(C)OCCCO1)=CC2=O,19.7
4,Clc1cccc(Cl)c1C1SCc2nc3ccccc3n21 (centres undefined),> 100
5,COc1cc2c(cc1OC)C1[C@@H](c3ccccc3)OCN1CC2 (some centres undefined),> 100

# Test system: XF 498 CNS
# Test: DTP human tumour cell line panel, 48 h
row,SMILES,TGI [µM]
1,COC1OC(COC(C)=O)C(OC(C)=O)C(OC(C)=O)C1NC(=O)N(CCCl)N=O (centres undefined),> 100
2,CNc1ccccc1-c1nc2ccccc2c(=O)o1,> 100
3,COc1cc(OC)c2c(c1)C(=O)C(CC1(C)OCCCO1)=CC2=O,18.4
